In article PMC6332312, “N-Monosubstituted Methoxy-oligo(ethylene glycol) Carbamate Ester Prodrugs of Resveratrol” (Molecules, 2015):

Columns and labels:
[1] = Hydrolysis in PBS 0.1 M at pH 6.8 (intestinal pH), 37 °C; format: physicochemical; settings: pH 6.8, 37 °C; for half-life at 5 µM: 0.1 M PBS buffer, 5 µM compound; for kII (hydrolysis rate constant, di- to monosubstituted) / kIII (hydrolysis rate constant, tri- to disubstituted): pseudo-first order fit
Protocol: (§1) Kinetic analysis of the data was performed by assuming that hydrolysis to resveratrol occurred via consecutive losses of the three protecting groups in pseudo-first order processes and by considering each pair of isomeric intermediates (potentially) resulting from the first and second hydrolysis steps as a single species, i.e. the two monosubstituted and the two disubstituted intermediates were handled as species I and II, respectively (Scheme 3).
As hydrolysis proceeds resveratrol will eventually form with the kinetics dictated by the constants, up to 100% conversion. The fit of the experimental data was obtained using a set of equations analogous to those utilized by Kozerski et al. and in our previous work.
The chemical stability of all new compounds was tested in aqueous media imitating gastric (0.1 N HCl, NormaFix) and intestinal (0.1 M PBS buffer, at pH 6.8) pH conditions. A 5 µM solution of the compound was prepared from a 5 mM stock solution in DMSO, and incubated at 37 °C for 24 h; samples withdrawn at different times were analyzed by HPLC-UV. Hydrolysis products were identified by HPLC/ESI-MS analysis of selected samples. Non-linear curve fitting was performed using Origin 8.0 data analysis software, using the equations described in [61, 62].

[2] = Stability (hydrolysis) in rodent whole blood, 37 °C; format: in vitro ADME; settings: rat blood; for kIII (hydrolysis rate constant, tri- to disubstituted): pseudo-first order fit; for half-life at 5 µM: whole blood, 5 µM compound
Protocol: as §1
Rats were anesthetized and blood was withdrawn from the jugular vein, heparinised and transferred into tubes containing EDTA. Blood samples (1 mL) were spiked with 5 µM compound (dilution from a 5 mM stock solution in DMSO), and incubated at 37 °C for 4 h (the maximum period allowed by blood stability). Aliquots were taken after 10 min, 30 min, 1 h, 2 h and 4 h and treated as described below (blood sample treatment and analysis). Cleared blood samples were finally subjected to HPLC-UV analysis.
(§2) Before starting the treatment, 4,4′-dihydroxybiphenyl was added as internal standard to a carefully-measured blood volume (25 µM final concentration). Blood was then stabilized with a freshly-prepared 10 mM solution of ascorbic acid (0.1 vol) and acidified with 0.6 M acetic acid (0.1 vol); after mixing, an excess of acetone (4 vol) was added, followed by sonication (2 min) and centrifugation (12,000× g, 7 min, 4 °C). The supernatant was finally collected and stored at −20 °C. Before analysis, acetone was allowed to evaporate at room temperature using a Univapo 150H (UniEquip, Martinsried, Germany) vacuum concentrator centrifuge, and up to 40 μL of CH3CN were added to precipitate residual proteins. After centrifugation (12,000× g, 5 min, 4 °C), cleared samples were directly subjected to HPLC-UV analysis. Metabolites and hydrolysis products were identified by comparison of chromatographic retention time with true samples.

[3] = Pharmacokinetic study after single intragastric bolus to rats; format: in vivo, male Wistar rats; settings: rat, single intragastric bolus 88 µmol/kg; for Tmax: male, Wistar, whole blood, po, 88 umol/kg, read-out: time of peak blood level after administration (converted); for peak blood concentration of prodrug (absorption): N = 3
Protocol: All the N-monosubstituted methoxy-oligo(ethylene glycol) carbamate ester prodrugs were tested for their in vivo absorption and metabolism. Pharmacokinetic studies were performed with rats, and each compound was administered as a single intragastric bolus, in an equimolar dose/kg body weight (88 µmol/kg). Blood samples were taken at different time points, treated as described in the Materials and Methods section and analyzed.
as §2
Derivatives 2–4 were administered to overnight-fasted male Wistar rats from the facility of the Department of Biomedical Sciences, University of Padova, as a single intragastric dose (88 µmol/kg, dissolved in 250 µL DMSO) delivered with a commercial stainless steel feeding tube (www.2biol.com) to have a precise starting time. Wistar rats are commonly used for such studies (e.g., [60]). Relatively young adults (3–5 months) were used in order to have a fully developed metabolism as well as a body weight (300–400 g) which would limit the amount of synthetic compound to be used.
Blood samples were obtained by the tail bleeding technique: before drug administration, rats were anesthetized with isoflurane and the tip of the tail was cut off; blood samples (80–100 µL each) were then taken from the tail tip at different time points after drug administration. Blood was collected in heparinized tubes, kept in ice and treated as described above within 10 min. All experiments involving animals were performed with the permission and supervision of the University of Padova Ethical Committee for Experimentation on Animals (CEASA) and Central Veterinary Service, in compliance with Italian Law DL 116/92, embodying EU Directive 86/609. Significance in comparisons was assessed using the Wilcoxon Rank Test.

Structure (SMILES) | half-life at 5 µM [1] | kII (hydrolysis rate constant, di- to monosubstituted) [1] | kIII (hydrolysis rate constant, tri- to disubstituted) [1] | kIII (hydrolysis rate constant, tri- to disubstituted) [2] | half-life at 5 µM [2] | appearance of resveratrol, derivatives or metabolites (stilbene derivatives) in blood samples [3] | Tmax [3] | peak blood concentration of prodrug (absorption) [3]
COCCOCCOCCNC(=O)Oc1ccc(/C=C/c2cc(OC(=O)NCCOCCOCCOC)cc(OC(=O)NCCOCCOCCOC)c2)cc1 [Compound 2, (E)-5-(4-(2-(2-(2-Methoxyethoxy)ethoxy)ethyl)carbamate)-1,3-phenylene bis((2-(2-(2-methoxyethoxy)ethoxy)ethyl)carbamate)] | 360 min | 0.030 ± 0.002 h⁻¹ | 0.104 ± 0.002 h⁻¹ | 1.47 ± 0.08 h⁻¹ | 30 min | did not result in the appearance of detectable amounts | – | –
COCCOCCOCCOCCNC(=O)Oc1ccc(/C=C/c2cc(OC(=O)NCCOCCOCCOCCOC)cc(OC(=O)NCCOCCOCCOCCOC)c2)cc1 [Compound 3, (E)-5-(4-(5,8,11-Tetraoxatridecan-13-ylcarbamate)styryl)-1,3-phenylene bis(2,5,8,11-tetraoxatridecan-13-ylcarbamate)] | 210 min | 0.042 ± 0.005 h⁻¹ | 0.134 ± 0.007 h⁻¹ | 2.0 ± 0.2 h⁻¹ | 18 min | measurable levels | 10 min | 0.3 µM
COCCOCCOCCOCCOCCOCCNC(=O)Oc1ccc(/C=C/c2cc(OC(=O)NCCOCCOCCOCCOCCOCCOC)cc(OC(=O)NCCOCCOCCOCCOCCOCCOC)c2)cc1 [Compound 4, (E)-5-(4-(2,5,8,11,14,17-Hexaoxanonadecan-19-ylcarbamate)styryl)-1,3-phenylene bis(2,5,8,11,14,17-hexaoxanonadecan-19-ylcarbamate)] | 270 min | 0.051 ± 0.001 h⁻¹ | 0.158 ± 0.002 h⁻¹ | 1.25 ± 0.08 h⁻¹ | 30 min | measurable levels | 10 min | 0.1 µM
